Source: the supplement of paper PMC11451515

What was measured:
Conditions in all cases: 48 h
NOMO1 [1] = test: AUC of viability dose-response curve (% viability x log10 dose units); higher = less sensitive
Procedure, shortened: (§1)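 In 1536-well plates, leukemia cells adapted to each medium (500 or 1000 cells/well) were exposed for 48 h at 37°C to library compounds in DMSO across 11 threefold doses, 47 μM down to 0.79 nM. Viability was read by CellTiter-Glo One luminescence and normalised per plate to DMSO and cell-free wells. A four-parameter log-logistic fit over log10 doses was integrated by trapezoidal rule. This yielded the area under the curve, with over-full-viability curves scaled and quality-control failures dropped.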

P12-Ichikawa [2] = test: as above
Procedure, shortened: as §1

SEM cells [3] = test: cell viability relative to DMSO control; higher = less cytotoxic
Procedure, shortened: (§2)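 Viability was expressed as a per-plate percentage of DMSO wells, with cell-free wells as background. Leukemia cells (NOMO1 or SEM at 500 cells/well, P12-Ichikawa at 1000 cells/well) were adapted for at least four passages in each medium and seeded in 1536-well plates (5 μl). Library compounds in DMSO were pin-dosed over an 11-point threefold series from 47 μM to 0.79 nM, and CellTiter-Glo One luminescence was read after 48 h at 37°C.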

NOMO1 [4] = test: as above
Procedure, shortened: as §2

P12-Ichikawa [5] = test: as above
Procedure, shortened: as §2

SEM cells [6] = test: AUC of viability dose-response curve (% viability x log10 dose units); higher = less sensitive
Procedure, shortened: as §1

O=C1N(c2ccccc2)c2ccccc2C1(Cc1ccncc1)Cc1ccncc1
AUC of viability dose-response curve
Conditions	HPLM + 10% dialyzed FBS	RPMI 5 mM glucose + 10% FBS	RPMI 5 mM glucose + 10% dialyzed FBS
NOMO1 [1]	462	473	465
P12-Ichikawa [2]	446	437	424

SEM cells [3], RPMI 5 mM glucose + 10% FBS
Conditions	cell viability [%]
0.000781 µM	84.9
0.00234 µM	115
0.00702 µM	133
0.0211 µM	148
0.0632 µM	129
0.19 µM	43.9
0.569 µM	137
1.71 µM	94.4
5.12 µM	88.3
15.4 µM	108
46.1 µM	152

Cc1cn2cc(C(=O)N(C)CCO)cc(N[C@@H]3CCOc4cccc(C)c43)c2n1
AUC of viability dose-response curve
Conditions	HPLM + 10% dialyzed FBS	RPMI 5 mM glucose + 10% FBS	RPMI 5 mM glucose + 10% dialyzed FBS
NOMO1 [1]	462	422	443
P12-Ichikawa [2]	465	470	469

cell viability [%]
Conditions	NOMO1 [4]	P12-Ichikawa [5]	SEM cells [3]
HPLM + 10% dialyzed FBS, 0.000781 µM	93.8	107	90.6
HPLM + 10% dialyzed FBS, 0.00234 µM	105	106	107
HPLM + 10% dialyzed FBS, 0.00702 µM	112	109	106
HPLM + 10% dialyzed FBS, 0.0211 µM	118	112	101
HPLM + 10% dialyzed FBS, 0.0632 µM	122	111	105
HPLM + 10% dialyzed FBS, 0.19 µM	115	119	107
HPLM + 10% dialyzed FBS, 0.569 µM	110	118	113
HPLM + 10% dialyzed FBS, 1.71 µM	131	115	114
HPLM + 10% dialyzed FBS, 5.12 µM	119	119	109
HPLM + 10% dialyzed FBS, 15.4 µM	108	110	113
HPLM + 10% dialyzed FBS, 46.1 µM	130	117	104
RPMI 5 mM glucose + 10% FBS, 0.000781 µM	96.2	105	84.3
RPMI 5 mM glucose + 10% FBS, 0.00234 µM	108	119	88.8
RPMI 5 mM glucose + 10% FBS, 0.00702 µM	107	107	75
RPMI 5 mM glucose + 10% FBS, 0.0211 µM	104	113	87.1
RPMI 5 mM glucose + 10% FBS, 0.0632 µM	105	118	80.7
RPMI 5 mM glucose + 10% FBS, 0.19 µM	106	117	82.9
RPMI 5 mM glucose + 10% FBS, 0.569 µM	113	115	95.8
RPMI 5 mM glucose + 10% FBS, 1.71 µM	111	123	81.1
RPMI 5 mM glucose + 10% FBS, 5.12 µM	122	115	87.2
RPMI 5 mM glucose + 10% FBS, 15.4 µM	117	105	67.6
RPMI 5 mM glucose + 10% FBS, 46.1 µM	129	114	81.5
RPMI 5 mM glucose + 10% dialyzed FBS, 0.000781 µM	105	106	88.9
RPMI 5 mM glucose + 10% dialyzed FBS, 0.00234 µM	104	109	93.7
RPMI 5 mM glucose + 10% dialyzed FBS, 0.00702 µM	114	105	90
RPMI 5 mM glucose + 10% dialyzed FBS, 0.0211 µM	130	116	110
RPMI 5 mM glucose + 10% dialyzed FBS, 0.0632 µM	114	118	95.3
RPMI 5 mM glucose + 10% dialyzed FBS, 0.19 µM	110	114	113
RPMI 5 mM glucose + 10% dialyzed FBS, 0.569 µM	122	118	94.1
RPMI 5 mM glucose + 10% dialyzed FBS, 1.71 µM	117	115	106
RPMI 5 mM glucose + 10% dialyzed FBS, 5.12 µM	115	110	108
RPMI 5 mM glucose + 10% dialyzed FBS, 15.4 µM	128	118	95.6
RPMI 5 mM glucose + 10% dialyzed FBS, 46.1 µM	129	109	94.9

N[S+](=O)([O-])c1ccc(Nc2nc(OCC3CCCCC3)c3[nH]cnc3n2)cc1
AUC of viability dose-response curve
Conditions	HPLM + 10% dialyzed FBS	RPMI 5 mM glucose + 10% FBS	RPMI 5 mM glucose + 10% dialyzed FBS
NOMO1 [1]	330	346	357
SEM cells [6]	307	276	298

cell viability [%]
Conditions	NOMO1 [4]	P12-Ichikawa [5]	SEM cells [3]
HPLM + 10% dialyzed FBS, 0.000781 µM	111	114	103
HPLM + 10% dialyzed FBS, 0.00234 µM	131	115	117
HPLM + 10% dialyzed FBS, 0.00702 µM	117	117	106
HPLM + 10% dialyzed FBS, 0.0211 µM	116	118	113
HPLM + 10% dialyzed FBS, 0.0632 µM	119	48	101
HPLM + 10% dialyzed FBS, 0.19 µM	73.7	24.2	115
HPLM + 10% dialyzed FBS, 0.569 µM	38.2	13.1	43
HPLM + 10% dialyzed FBS, 1.71 µM	41.3	15.9	24
HPLM + 10% dialyzed FBS, 5.12 µM	58.2	20.3	23.8
HPLM + 10% dialyzed FBS, 15.4 µM	56.1	52.2	16.4
HPLM + 10% dialyzed FBS, 46.1 µM	42.9	73	3.57
RPMI 5 mM glucose + 10% FBS, 0.000781 µM	97.1	117	–
RPMI 5 mM glucose + 10% FBS, 0.00234 µM	106	118	–
RPMI 5 mM glucose + 10% FBS, 0.00702 µM	109	115	–
RPMI 5 mM glucose + 10% FBS, 0.0211 µM	107	120	–
RPMI 5 mM glucose + 10% FBS, 0.0632 µM	103	103	–
RPMI 5 mM glucose + 10% FBS, 0.19 µM	103	109	–
RPMI 5 mM glucose + 10% FBS, 0.569 µM	66.9	32.3	–
RPMI 5 mM glucose + 10% FBS, 1.71 µM	28.4	14.7	–
RPMI 5 mM glucose + 10% FBS, 5.12 µM	24.3	15.2	–
RPMI 5 mM glucose + 10% FBS, 15.4 µM	31.4	19.4	–
RPMI 5 mM glucose + 10% FBS, 46.1 µM	47.1	66.2	–
RPMI 5 mM glucose + 10% dialyzed FBS, 0.000781 µM	119	120	109
RPMI 5 mM glucose + 10% dialyzed FBS, 0.00234 µM	115	123	134
RPMI 5 mM glucose + 10% dialyzed FBS, 0.00702 µM	118	111	114
RPMI 5 mM glucose + 10% dialyzed FBS, 0.0211 µM	117	120	120
RPMI 5 mM glucose + 10% dialyzed FBS, 0.0632 µM	104	109	112
RPMI 5 mM glucose + 10% dialyzed FBS, 0.19 µM	116	108	109
RPMI 5 mM glucose + 10% dialyzed FBS, 0.569 µM	78.2	25.2	49.6
RPMI 5 mM glucose + 10% dialyzed FBS, 1.71 µM	35.9	20.7	21
RPMI 5 mM glucose + 10% dialyzed FBS, 5.12 µM	35	22.5	21.2
RPMI 5 mM glucose + 10% dialyzed FBS, 15.4 µM	32	36.5	14.4
RPMI 5 mM glucose + 10% dialyzed FBS, 46.1 µM	67.1	59.5	2.04

C[C@@H]1C(=O)O[C@H]2CC34[C@H]5C[C@@H](C(C)(C)C)C36[C@@H](OC(=O)[C@@H]6O)O[C@@]4(C(=O)O5)[C@]21O (stereo not given in full)
AUC of viability dose-response curve
Conditions	NOMO1 [1]	P12-Ichikawa [2]	SEM cells [6]
HPLM + 10% dialyzed FBS	431	447	465
RPMI 5 mM glucose + 10% FBS	460	462	467
RPMI 5 mM glucose + 10% dialyzed FBS	463	462	456
